Target: T1, β-glucosidase from Agrobacterium (Agrobacterium sp., UniProt P12614)
T1 construct: purchased Megazyme
T1 sequence (P12614 1-459): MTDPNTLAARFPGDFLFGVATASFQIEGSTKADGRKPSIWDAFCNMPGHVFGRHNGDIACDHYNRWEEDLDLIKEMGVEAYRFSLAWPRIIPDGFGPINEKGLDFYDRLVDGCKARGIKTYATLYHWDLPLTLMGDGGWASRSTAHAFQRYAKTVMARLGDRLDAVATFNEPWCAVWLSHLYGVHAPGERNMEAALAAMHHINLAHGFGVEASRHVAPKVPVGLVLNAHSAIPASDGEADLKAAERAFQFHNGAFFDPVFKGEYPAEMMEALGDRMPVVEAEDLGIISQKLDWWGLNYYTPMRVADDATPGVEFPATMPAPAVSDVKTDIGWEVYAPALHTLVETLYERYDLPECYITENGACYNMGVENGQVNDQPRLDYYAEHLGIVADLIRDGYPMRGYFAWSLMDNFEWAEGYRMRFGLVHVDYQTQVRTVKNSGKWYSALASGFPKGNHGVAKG
Test: Oligomerization of bis(indoxyl-glucoside) 46 with β-glucosidase from Agrobacterium
Format: biochemical
Conditions: precipitate from 300 μM of 46 suspended in H2O
Description: Oligomerization of 46 was carried out by treatment with β-glucosidase from Agrobacterium (200 nM) in 10 mM phosphate buffer (pH 7) at 37° C. for 2-4 h (Scheme 9). Precipitation occurred during the reaction. After centrifugation, the precipitate was separated from the supernatant, washed with H2O, and dried to afford a blue solid.
The efficacy of the indigogenic oligomerization was examined under a variety of conditions. As shown in entries 1˜4 in Table 2, the yield of indigoid dye in the supernatant versus precipitate reversed as the concentration of 46 was decreased from 300 to 10 μM, although the total yields were in the range 17-29%. While the reactions in entries 1˜4 were carried out in phosphate buffer containing NaCl (0.05 M), those of entries 5 and 6 (with 300 and 50 μM of 46, respectively) were conducted in NaCl-free phosphate buffer. The use of NaCl-free phosphate buffer facilitated extraction of the indigoid dye in the supernatant for analysis.
The time course of the oligomerization was examined under the reaction conditions listed in entry 5 of Table 2, with 300 μM of 46. Noticeable changes include observation of blue clouding and color deepening at 20 min. Centrifugation enabled isolation of the precipitate. […] The absorption spectrum of the precipitate was examined in DMF/DMSO (9:1) and compared with that of the extracted supernatant (in DMF) and 43 (in DMF) (FIG. 10D). […]

Structure (SMILES): O=S(=O)([O-])CCC[N+]1(CCCO)CCN(c2nc(OCCOCCOCCOc3c(Br)cc4[nH]cc(O[C@@H]5O[C@H](CO)[C@@H](O)[C@H](O)[C@H]5O)c4c3Br)nc(OCCOCCOCCOc3c(Br)cc4[nH]cc(O[C@@H]5O[C@H](CO)[C@@H](O)[C@H](O)[C@H]5O)c4c3Br)n2)CC1 [compound 46]
- particle size of precipitate by DLS (number mean): ~680 nm

From patent US12502440B2, “Cross-linking compounds and methods of use thereof” (North Carolina State University, priority 2019, dated 2025)
